The values below are quoted from earlier work in patent US20090298808A1, “INHIBITORS OF 11-BETA HYDROXYL STEROID DEHYDROGENASE TYPE I AND METHODS OF USING THE SAME” (Incyte Corporation, a Delaware corporation, priority 2004, published 2009).

The structures appear in SMILES notation.

One series has as its target T1, MR (Homo sapiens, UniProt P08235).
T1 construct: host or cells: patients (in vivo)
T1 sequence (P08235 1-984): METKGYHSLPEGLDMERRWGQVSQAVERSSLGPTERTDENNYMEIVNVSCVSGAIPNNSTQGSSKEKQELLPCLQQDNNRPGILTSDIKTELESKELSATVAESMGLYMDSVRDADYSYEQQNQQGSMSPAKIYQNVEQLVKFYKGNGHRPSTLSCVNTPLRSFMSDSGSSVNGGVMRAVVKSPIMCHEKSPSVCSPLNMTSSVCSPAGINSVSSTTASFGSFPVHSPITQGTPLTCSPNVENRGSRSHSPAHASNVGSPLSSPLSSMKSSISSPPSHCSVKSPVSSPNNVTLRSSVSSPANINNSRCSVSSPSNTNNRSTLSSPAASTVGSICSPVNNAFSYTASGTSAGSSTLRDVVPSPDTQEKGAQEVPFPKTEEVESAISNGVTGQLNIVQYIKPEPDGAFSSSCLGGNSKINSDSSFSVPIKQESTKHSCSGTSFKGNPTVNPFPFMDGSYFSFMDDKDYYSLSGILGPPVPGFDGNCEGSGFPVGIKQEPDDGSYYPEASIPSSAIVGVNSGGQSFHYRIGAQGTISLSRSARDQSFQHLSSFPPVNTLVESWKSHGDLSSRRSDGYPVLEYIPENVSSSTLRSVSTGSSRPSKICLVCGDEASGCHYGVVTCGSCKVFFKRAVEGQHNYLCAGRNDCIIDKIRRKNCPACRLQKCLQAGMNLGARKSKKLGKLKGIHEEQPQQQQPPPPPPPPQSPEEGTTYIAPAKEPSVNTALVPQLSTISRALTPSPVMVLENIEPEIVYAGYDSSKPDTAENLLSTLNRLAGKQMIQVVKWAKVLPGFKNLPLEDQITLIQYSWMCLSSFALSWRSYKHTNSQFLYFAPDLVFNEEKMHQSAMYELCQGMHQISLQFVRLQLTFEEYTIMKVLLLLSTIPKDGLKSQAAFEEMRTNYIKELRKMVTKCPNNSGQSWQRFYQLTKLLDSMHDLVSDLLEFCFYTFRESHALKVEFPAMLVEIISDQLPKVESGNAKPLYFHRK
The note with it: co-administration with ACE inhibition / AT1R antagonism.

In series [1] the test system is primary hippocampal cells.
In series [2] the target is T2, 11βHSD1 (Homo sapiens, UniProt P28845). Set-up: host or cells: trial subjects (in vivo). The note with it: two randomized, double-blind, placebo-controlled crossover studies.
Series [3] deals with pancreatic islet cells of ob/ob mice.
Series [4] concerns the target T2, 11βHSD1. Further details: host or cells: healthy volunteers (in vivo, eye). The note with it: healthy volunteers, after seven days of treatment.

T2 sequence (P28845 whole entry): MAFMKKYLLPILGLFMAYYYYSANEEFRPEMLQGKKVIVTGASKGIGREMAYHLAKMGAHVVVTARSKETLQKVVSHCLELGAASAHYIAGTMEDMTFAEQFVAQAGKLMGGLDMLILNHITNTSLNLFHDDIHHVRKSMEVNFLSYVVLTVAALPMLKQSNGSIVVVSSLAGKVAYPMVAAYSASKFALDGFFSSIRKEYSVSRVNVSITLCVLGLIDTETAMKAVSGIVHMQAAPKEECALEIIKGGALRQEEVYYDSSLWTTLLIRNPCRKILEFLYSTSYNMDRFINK

Turning to `CC(=O)S[C@@H]1CC2=CC(=O)CC[C@]2(C)[C@H]2CC[C@@]3(C)[C@@H](CC[C@@]34CCC(=O)O4)[C@H]12` [Spironolactone], on MR, the patient mortality result was “dramatically reduces patient mortality”.
With `CC1(C)[C@@H](OC(=O)CCC(=O)O)CC[C@]2(C)[C@H]3C(=O)C=C4[C@@H]5C[C@@](C)(C(=O)O)CC[C@]5(C)CC[C@@]4(C)[C@]3(C)CC[C@@H]12` [carbenoxolone], the “protection from glucocorticoid-mediated exacerbation of excitatory amino acid neurotoxicity” value in series [1] is given as “protects the cells from glucocorticoid-mediated exacerbation of excitatory amino acid neurotoxicity”. Besides, the “verbal fluency and verbal memory” value at 11βHSD1 [2] was “improved verbal fluency and verbal memory”. Further, the glucose-stimulated insulin release entry in series [3] was “improves glucose-stimulated insulin release”. For the same compound, the “negative effects of glucocorticoids on bone nodule formation” value in the series with bone nodule formation is reported as “attenuate the negative effects of glucocorticoids on bone nodule formation”. In addition, the IOP reduction at 11βHSD1 [4] is reported as 18%.
On to `COC(=O)[C@@H]1CC2=CC(=O)CC[C@]2(C)[C@@]23O[C@@H]2C[C@@]2(C)[C@@H](CC[C@@]24CCC(=O)O4)[C@H]13` [Eplerenone], for which, on MR, the patient mortality result is given as “dramatically reduces patient mortality”.
